# Columns and labels:
# ΔF508-CFTR = target: T1, ΔF508-CFTR (Homo sapiens, UniProt P13569, DEL508-508); experiment: CFTR cell surface levels using HRP-tagged ΔF508-CFTR expressing CFBE cells, in the presence of a co-corrector; type: cell-based; conditions: HRP-tagged ΔF508-CFTR CFBE cells, in the presence of 3 μM co-corrector; for EC50: read-out: EC50
# T1 construct: host or cells: CFBE41o-, doxycycline-inducible
# In short: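 Chemiluminescent read-out of surface HRP (15 min, dark) after PBS washes. Activity is normalized as 100×(sample−DMSO)/(3 μM co-corrector alone−DMSO).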
# CFTR ΔF508 = target: T2, CFTR ΔF508 (Homo sapiens, UniProt P13569, DEL508-508); experiment: Chronic TECC assay, primary bronchial epithelial cells of CF patients homozygous for CFTR ΔF508 (corrector, co-corrector and potentiator); type: cell-based; conditions: chronic TECC, Ieq = calculations based on the maximum current
# T2 construct: bronchial epithelial cells isolated from CF patients homozygous for the CFTR ΔF508 mutation; McGill University; Asterand; University of North Carolina hAEC-CF; host or cells: primary human bronchial epithelial cells from CF patients homozygous for ΔF508, differentiated at air-liquid interface
# In short: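 Primary bronchial epithelial cells from ΔF508-homozygous CF patients on collagen IV-coated Transwells were chronically treated with test compound plus corrector and potentiator, which were re-added before recording. Ieq was derived from PD and Rt in NaCl-Ringer, pH 7.4, at 37° C, with apical amiloride and bilateral forskolin, recorded every 2 min over 20 min. Ieq increase was normalized to controls, and EC50 was taken from per-well concentrations.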
# T1 sequence (P13569 with tags, fused parts or gaps DEL508-508): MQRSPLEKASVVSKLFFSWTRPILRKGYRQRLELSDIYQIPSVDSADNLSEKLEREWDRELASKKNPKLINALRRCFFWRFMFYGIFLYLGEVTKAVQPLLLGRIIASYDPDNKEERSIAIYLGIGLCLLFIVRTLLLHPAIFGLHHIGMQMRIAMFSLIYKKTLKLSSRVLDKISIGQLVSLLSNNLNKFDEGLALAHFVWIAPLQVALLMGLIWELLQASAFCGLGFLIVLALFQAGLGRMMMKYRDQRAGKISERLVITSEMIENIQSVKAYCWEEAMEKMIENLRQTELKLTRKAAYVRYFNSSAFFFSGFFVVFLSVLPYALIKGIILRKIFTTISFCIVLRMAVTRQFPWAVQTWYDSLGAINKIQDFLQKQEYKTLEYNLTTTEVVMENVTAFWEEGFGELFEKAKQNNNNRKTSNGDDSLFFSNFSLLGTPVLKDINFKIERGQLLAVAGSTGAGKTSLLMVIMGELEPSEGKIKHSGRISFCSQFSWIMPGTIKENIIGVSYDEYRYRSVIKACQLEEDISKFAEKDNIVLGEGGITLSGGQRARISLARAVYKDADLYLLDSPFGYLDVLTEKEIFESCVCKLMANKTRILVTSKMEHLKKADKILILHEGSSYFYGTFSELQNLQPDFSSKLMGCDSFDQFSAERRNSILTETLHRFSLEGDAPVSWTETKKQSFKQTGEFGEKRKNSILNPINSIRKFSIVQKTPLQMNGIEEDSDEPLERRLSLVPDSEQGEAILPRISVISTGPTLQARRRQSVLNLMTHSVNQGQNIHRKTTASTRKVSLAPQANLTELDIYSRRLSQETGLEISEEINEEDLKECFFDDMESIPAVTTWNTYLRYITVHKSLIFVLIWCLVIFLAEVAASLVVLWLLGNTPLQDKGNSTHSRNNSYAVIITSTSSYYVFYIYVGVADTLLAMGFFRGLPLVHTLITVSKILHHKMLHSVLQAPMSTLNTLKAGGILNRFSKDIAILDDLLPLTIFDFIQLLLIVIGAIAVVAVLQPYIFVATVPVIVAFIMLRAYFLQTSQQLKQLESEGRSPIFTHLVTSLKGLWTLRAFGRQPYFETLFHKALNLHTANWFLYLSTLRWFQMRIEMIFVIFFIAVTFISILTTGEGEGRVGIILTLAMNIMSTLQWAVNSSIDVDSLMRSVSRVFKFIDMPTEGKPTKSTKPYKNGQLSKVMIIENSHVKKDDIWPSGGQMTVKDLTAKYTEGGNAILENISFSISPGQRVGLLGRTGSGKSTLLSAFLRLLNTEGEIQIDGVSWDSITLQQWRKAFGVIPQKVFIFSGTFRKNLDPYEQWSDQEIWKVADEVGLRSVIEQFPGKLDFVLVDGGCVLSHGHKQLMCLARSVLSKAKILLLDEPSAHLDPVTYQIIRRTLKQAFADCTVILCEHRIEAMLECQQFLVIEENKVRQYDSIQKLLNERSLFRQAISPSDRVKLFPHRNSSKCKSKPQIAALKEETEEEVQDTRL
# T2 sequence (P13569 with tags, fused parts or gaps DEL508-508): as above
structure (smiles),measurement,setting,value
"CC(C)c1nn(-c2cccc(N3CCC3)c2)c2nc(C(=O)NS(C)(=O)=O)cc(-c3ccc(N4CCOCC4)cc3)c12 [Compound 10, 1-[3-(azetidin-1-yl)phenyl]-N-(methanesulfonyl)-4-[4-(morpholin-4-yl)phenyl]-3-(propan-2-yl)-1H-pyrazolo[3,4-b]pyridine-6-carboxamide]",% Activation,ΔF508-CFTR,606.5%
same,EC50,ΔF508-CFTR,443 nM
"Cc1nn(-c2ccccc2)c2nc(C(=O)NS(C)(=O)=O)cc(N3CCCCC3)c12 [Compound 13, N-(methanesulfonyl)-3-methyl-1-phenyl-4-(piperidin-1-yl)-1H-pyrazolo[3,4-b]pyridine-6-carboxamide]",% Activation,ΔF508-CFTR,341.75%
same,EC50,ΔF508-CFTR,1470 nM
"CC(C)c1nn(C2CCCCC2)c2nc(C(=O)NS(C)(=O)=O)cc(-c3cnc(N4CCOCC4)nc3)c12 [Compound 11, 1-cyclohexyl-N-(methanesulfonyl)-4-[2-(morpholin-4-yl)pyrimidin-5-yl]-3-(propan-2-yl)-1H-pyrazolo[3,4-b]pyridine-6-carboxamide]",% Activation,ΔF508-CFTR,381.33%
same,EC50,ΔF508-CFTR,455 nM
"CS(=O)(=O)NC(=O)c1cc(-c2ccc(N3CCC(C#N)CC3)nc2)c2c(C3CCC3)nn(C3CCCCC3)c2n1 [Compound 104, 4-[6-(4-cyanopiperidin-1-yl)pyridin-3-yl]-3-cyclobutyl-1-cyclohexyl-N-(methanesulfonyl)-1H-pyrazolo[3,4-b]pyridine-6-carboxamide]",% Activation,ΔF508-CFTR,411.33%
same,EC50,ΔF508-CFTR,344 nM
same,EC50,CFTR ΔF508; read-out: EC50 (nM) (Ieq*),< 30 nM
same,% Activity at 1 μM (Ieq*),CFTR ΔF508; test compound at 1 μM,720%

# Reference: patent US10259810B2, “N-sulfonylated pyrazolo[3,4-b]pyridin-6-carboxamides and method of use” (AbbVie S.à.r.l., priority 2015, dated 2019)
